These results are taken from patent publication US5843937A (priority 1996, dated 1998).

The conditions of series [1]: prior compounds; experimental animals (CC-1065); cited from earlier work.
For series [2] the following is noted: both in vitro and in experimental animals; cited from earlier work.
For series [3], the system named is double-stranded B-DNA. To be noted: cited from earlier work.
Series [4] deals with B16 Melanoma. Briefly: Cytotoxicity of Invented Compounds Against B16 Melanoma. Type of series: cell-based. The conditions noted are these: Mus musculus.
The test system of series [5] is U937 Cells. Kind of series: Cytotoxicity of Invented Compounds Against U937 Cells. Type of series: cell-based. To be noted: Homo sapiens, U-937, 48 h incubation, 3H-thymidine last 24 h. The procedure: Some of the new compounds were tested for their cytotoxicity against cancer cells. U937 cells were used to determine the IC50 values. The assay was set up in triplicate in 96 well flat bottom microtiter plates. All cells are seeded at 5×10^3 cells/well in RPMI-1640 plus 10% FCS. Drugs were added and the total volume was adjusted to 0.2 mL/well. Total incubation time was 48 h with the addition of ^3 H-thymidine for the last 24 h of incubation. The assay was harvested and counted with the packard Matrix 96 beta counter. The results were expressed as the percent growth inhibition calculated from the percent decrease in cpm of treated cells relative to the untreated controls.

Series [6] deals with human liver cancer HepG2 cells. Kind of series: Cytotoxicity of Mab-YW-242 conjugates against liver cancer HepG2 cells (3H-thymidine incorporation). The conditions noted are these: 1 h drug incubation, washed, overnight with 3H-thymidine, read-out: IC50 Values of the Mab-drug Conjugate. Type of series: cell-based. How it is done: Using such potent molecules for monoclonal antibody-drug conjugate has advantages over using low potency agents. The tumor specific antibody will carry these molecules specifically to tumor cells, thus enhancing the therapeutic efficacy of these compounds. The monoclonal antibody-drug conjugates are still very toxic to cancer cells. The Mab-YW-242 conjugates were tested in vitro against human liver cancer HepG2 cells. IC50 values for cell proliferation were determined by incorporation of ^3 H-thymidine.
The conjugates were tested in vitro against human liver cancer HepG2 cells. IC50 values for cell proliferation were determined by incorporation of ^3 H-thymidine. 4×10^4 of trypsinized cells in 0.1 mL of DMEM medium containing 10% of heat-inactivated FCS were added to each well of 96-well microtiter plates and incubated for 4 h at 37° C. to allow attachment of the cells. Drugs in 10 μL of PBS were added and incubated for 1 h at 37° C. Medium was removed and the cells were washed with PBS (0.2 mL). Fresh medium (0.1 mL) and ^3 H-thymidine (10 μL) were added. The cells were incubated overnight at 37° C. The cells were treated with trypsin-EDTA for 15 min at 37° C. and then harvested using a micromate 196 harvester. Radioactivity was counted and IC50 values were determined.

For series [7] the following is noted: antitumor use; cited from earlier work.

In the case of `COc1c(O)c2c(c3cc(C(=O)N4CCc5c4c(O)c(OC)c4[nH]c(C(=O)N6CC7CC78C6=CC(=O)c6[nH]cc(C)c68)cc54)[nH]c13)CCN2C(N)=O` (stereo not drawn) [CC-1065], the delayed death result in series [1] is recorded as “causes delayed death in experimental animals”. Moreover, the “antitumor and antimicrobial activity” value in series [2] is “potent antitumor and antimicrobial activity both in vitro and in experimental animals”. Also, the alkylation site entry in series [3] (by its CPI left-hand unit) is on record as “alkylates the N3 position of the 3'-adenine”. In addition, the “sequence preference of DNA binding” value in series [3] (within the minor groove) was 5'-d(A/GNTTA)-3' and 5'-d(AAAAA)-3'.

The IC50 is the point on the concentration scale where inhibition reaches its midpoint. For the molecule `COc1cccc2c1C(=O)c1c(O)c3c(c(O)c1C2=O)C[C@@](O)(C(=O)CO)C[C@@H]3O[C@H]1C[C@H](N)[C@H](O)[C@H](C)O1` [Doxorubicin, reference compound], the IC50 in series [4] is 780 nM; in series [5] it was 100 nM; in series [6] it was 6000 nM.

As for `Nc1ccc2[nH]c(C(=O)N3CC(CCl)c4c3cc(O)c3ccccc43)cc2c1` (stereo not drawn) [YW-242, 3-[(5-Amino-1H-indol-2'-yl)carbonyl]-1-(chloromethyl)-5-hydroxy-1,2-dihydro-3H-benz[e]indole], the half-maximal inhibitory concentration (IC50) in series [4] was found to be 11 nM; in series [5] it was 0.09 nM; in series [6] it was 200 nM.

On to `Cn1cc(NC(=O)c2cc(NC(=O)c3cc(NC=O)cn3C)cn2C)cc1C(=O)NCCC(=N)N` [distamycin], for which the therapeutic efficacy result in series [7] is “low therapeutic efficacy”.

`Cn1cc(NC(=O)c2cc(NC(=O)CN=C(N)N)cn2C)cc1C(=O)NCCC(=N)N` [netropsin]: the therapeutic efficacy entry in series [7] is “low therapeutic efficacy”.
